Laboratory results: patent publication US7579373B2, “Targeted bisplatinum polyamines as pro-drugs: selective release of platinum” (Virginia Commonwealth University, priority 2002, dated 2009)

What was measured:
[1] = pKa of the N4 site by pH titration monitored by 1H NMR; type: physicochemical
Method: pH measurements were taken on a Corning 340 pH meter with combined glass electrode. pD values in deuterated solutions were obtained by addition of 0.4 units to the meter reading. Extinction coefficients were determined with a Jasco V-550 UV/VIS spectrophotometer using 1 cm cuvettes.
In order to find the optimal conditions for the synthetic procedure, the pKa of the N4 site of the unprotected Pt spermidine complex 1 was determined prior to the protection reactions (6). A pH titration was carried out and monitored by ^1H NMR spectroscopy (11 and 12). […] The increased acidity is most likely a consequence of the electron withdrawing effect of the coordinated platinum centers.

L1210/0 [2] = experiment: Growth inhibition in L1210/0 cells; type: cell-based, murine; conditions: 2 hours of exposure; mean (±SE), 3 experiments of 2 determinations
Source text: To examine the pro-drug potential in a biological setting, a comparison of the pharmacological properties of the blocked polyamine compounds in L1210 murine leukemia cells was undertaken.

L1210/DDP [3] = experiment: Growth inhibition in L1210/DDP cells; type: cell-based, murine
L1210/0 [4] = experiment: Cellular accumulation in L1210/0 cells; type: cell-based, murine; conditions: 2 hours of exposure; (±SE), 3 experiments of 2 determinations
Method: (§1) Cellular accumulation. The cellular accumulation assays followed published procedures (7). Briefly, cells were resuspended at 10^7/mL in media supplemented with […]. Platinum complexes were added, and samples were incubated at 37° C. in 5% CO2. At 0 and 2 hours aliquots were removed for determination of cell concentrations and for measurement of platinum content. For the latter, aliquots were washed three times in cold phosphate buffered saline, resuspended in 1% Triton-X in water, and sonicated. Platinum content was measured by flameless atomic absorption spectroscopy.
(§2) The cellular accumulation of the blocked Pt compound 2 was also investigated. […] Based solely on charge considerations the BOC-spermidine with a charge of 2+ should have cellular uptake similar to 1,1/t,t (n=6). The enhanced uptake could be explained by some hydrolysis in media or plasma producing small amounts of the protonated 1,1/t,t-spermidine. Considering the potency of polynuclear-polyamine compounds, a small percentage of hydrolysis could have a significant impact on in vivo activity.

L1210/DDP [5] = experiment: Cellular accumulation in L1210/DDP cells; type: cell-based, murine; conditions: 2 hours of exposure; (±SE), 3 experiments of 2 determinations
Method: as §1, §2

A2780 = experiment: SRB growth inhibition assay, A2780; type: cell-based, human; conditions: 96 h exposure
Method: (§3) Cell culture. A2780, A2780/CDDP, CH1, CH1/CDDP, 41M and 41M/CDDP cell lines were used in this study and maintained according to published procedures. (8,9).
(§4) Growth inhibition assay. The Sulforhodamine B (SRB) assay was used to determine growth inhibition potency of platinum drugs (10). The cells were seeded in 96-well microtitre plates at 3-8×10^3 cells/well in 160 μL growth medium and allowed to attach overnight. Platinum agents were then added after serial dilution in quadruplicate wells and exposed to cells for 2 or 96 hours. After the 2 hours drug incubations were complete, plates were washed free of drug with phosphate-buffered saline (PBS) and then refed with normal growth medium for a further 94 hours. Quantitation of cell growth in treated and control wells was then assessed using 0.4% SRB dissolved in 1% acetic acid. IC50 values were determined graphically.
(§5) Of special interest is the remarkably low value for 4 (Fmoc) in A2780 cells.

A2780/CDDP = experiment: SRB growth inhibition assay, A2780/CDDP; type: cell-based, human; conditions: 96 h exposure
Method: as §3
as §4, with “graphically. […]” for “graphically.”

CH1 = experiment: SRB growth inhibition assay, CH1; type: cell-based, human; conditions: 96 h exposure
Method: as §3, §4, §5

CH1/CDDP = experiment: SRB growth inhibition assay, CH1/CDDP; type: cell-based, human
Method: as §3
as §4, with “graphically. […]” for “graphically.”

41M = experiment: SRB growth inhibition assay, 41M; type: cell-based, human; conditions: 96 h exposure
Method: as §3, §4, §5

In the case of `N.N.N.N.NCCCC[NH2+]CCCN.[Cl-].[Cl-].[Cl-].[Cl][Pt+].[Cl][Pt+]` [Compound 1, [{trans-Pt(NH3)2Cl}2-μ-spermidine-N^1,N^8]Cl3], the “pKa of the N4 site” value [1] is reported as 9.24±0.05, the IC50 (L1210/0 [2]) is reported as 750 nM and the IC50 (L1210/DDP [3]; 2 hours of exposure, mean (±SE), 3 experiments of 2 determinations) is reported as 260 nM. For the same compound, the “RF, resistance factor” value (L1210/DDP [3]; IC50 L1210/DDP / IC50 L1210/0, 2 hours of exposure) was 0.35, the “Accumulation L1210/0” value (L1210/0 [4]) was 17 (3.4) attamol Pt complex/cell and the “Accumulation L1210/DDP” value (L1210/DDP [5]) was 20 (2.1) attamol Pt complex/cell. It also gave an IC50 (A2780) of under 250 nM, an IC50 (A2780/CDDP) of under 250 nM and an IC50 (CH1) of 430 nM. The IC50 (CH1/CDDP; 96 h exposure) was 350 nM, the “RF CH1/CDDP” value (CH1/CDDP; IC50 resistant/IC50 parent line, 96 h) was 0.8 and the IC50 (41M) was under 250 nM.
